Laboratory results: BindingDB's records for patent US12234222 (Zhejiang Hisun Pharmaceutical, 2025)

Experiments:
[1] = molecular target: Proto-oncogene tyrosine-protein kinase receptor Ret (Homo sapiens, UniProt P07949); test: RET Kinase Assay
Method: The experimental steps are as follows:(1) The test compound (the compound of the present disclosure, and compound 164 in WO2018017983A1 as a control) was dissolved in 100% DMSO to a final concentration of 10 mM.(2) 4 μL of the test compound solution prepared in step (1) was dissolved with 46 μL of 100% DMSO, and the solution obtained in this step was numbered as No. 2.(3) No. 2 solution was subjected to subsequent gradient dilution with a dilution factor of 5 times (i.e. 20 μL of 100% DMSO was added to 5 μL of the compound), a total of 9 gradients, numbered 3 to 11.Note: No. 2 was not used for the dilution in step (4).(Unless otherwise specified, the following steps need to be carried out on ice)(4) The buffer provided in the kit (Cisbio, Cat. No. 62TK0PEB) was used to continuously serially dilute the solutions numbered from 3 to 11 with a dilution factor of 20 times (that is, adding 19 μL of buffer to the solutions numbered from 3 to 11). […] After the incubation, the TF-FRET mode of the microplate reader (BMG Labtech, model: FLUOStar Omega) was adopted to measure the fluorescence intensity at an excitation wavelength of 304 nm and emission wavelengths of 615 nm and […] in each well. […]

[2] = molecular target: Vascular endothelial growth factor receptor 2 (Homo sapiens, UniProt P35968)
Vascular endothelial growth factor receptor 2, sequence (P35968 whole entry): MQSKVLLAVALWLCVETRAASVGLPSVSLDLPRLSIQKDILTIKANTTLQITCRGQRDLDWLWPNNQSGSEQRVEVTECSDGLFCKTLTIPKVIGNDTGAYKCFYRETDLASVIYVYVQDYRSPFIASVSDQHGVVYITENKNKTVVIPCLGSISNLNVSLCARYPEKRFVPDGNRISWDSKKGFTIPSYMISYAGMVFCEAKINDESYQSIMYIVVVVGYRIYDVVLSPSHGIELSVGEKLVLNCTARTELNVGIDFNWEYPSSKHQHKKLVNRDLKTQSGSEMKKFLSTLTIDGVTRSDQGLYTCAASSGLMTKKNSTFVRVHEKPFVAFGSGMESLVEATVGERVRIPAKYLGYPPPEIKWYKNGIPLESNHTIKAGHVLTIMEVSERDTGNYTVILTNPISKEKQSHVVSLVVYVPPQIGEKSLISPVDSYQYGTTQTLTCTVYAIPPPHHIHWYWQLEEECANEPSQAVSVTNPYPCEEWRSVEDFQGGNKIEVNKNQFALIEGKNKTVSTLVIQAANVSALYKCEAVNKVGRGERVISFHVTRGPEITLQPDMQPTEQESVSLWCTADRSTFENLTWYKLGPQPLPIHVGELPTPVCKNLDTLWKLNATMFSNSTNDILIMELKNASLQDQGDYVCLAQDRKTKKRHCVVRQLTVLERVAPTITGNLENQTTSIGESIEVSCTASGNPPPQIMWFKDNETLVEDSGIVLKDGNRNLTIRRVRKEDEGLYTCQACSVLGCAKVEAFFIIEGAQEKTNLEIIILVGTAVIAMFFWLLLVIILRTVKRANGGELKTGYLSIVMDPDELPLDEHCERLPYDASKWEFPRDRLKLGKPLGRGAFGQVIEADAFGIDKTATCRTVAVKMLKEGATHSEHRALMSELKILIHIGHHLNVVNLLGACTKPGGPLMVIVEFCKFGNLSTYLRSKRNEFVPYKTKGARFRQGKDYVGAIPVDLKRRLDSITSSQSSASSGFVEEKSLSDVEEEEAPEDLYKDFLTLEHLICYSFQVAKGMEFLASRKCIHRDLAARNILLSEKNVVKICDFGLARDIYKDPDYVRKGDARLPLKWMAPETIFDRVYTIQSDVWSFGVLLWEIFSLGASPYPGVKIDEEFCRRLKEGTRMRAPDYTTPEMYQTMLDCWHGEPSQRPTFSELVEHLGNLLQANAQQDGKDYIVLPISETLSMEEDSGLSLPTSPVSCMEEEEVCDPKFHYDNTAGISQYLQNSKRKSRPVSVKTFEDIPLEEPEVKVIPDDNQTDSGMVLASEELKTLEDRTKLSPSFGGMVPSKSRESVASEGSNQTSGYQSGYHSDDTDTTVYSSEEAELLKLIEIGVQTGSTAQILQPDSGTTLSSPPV

Proto-oncogene tyrosine-protein kinase receptor Ret, sequence (P07949 whole entry): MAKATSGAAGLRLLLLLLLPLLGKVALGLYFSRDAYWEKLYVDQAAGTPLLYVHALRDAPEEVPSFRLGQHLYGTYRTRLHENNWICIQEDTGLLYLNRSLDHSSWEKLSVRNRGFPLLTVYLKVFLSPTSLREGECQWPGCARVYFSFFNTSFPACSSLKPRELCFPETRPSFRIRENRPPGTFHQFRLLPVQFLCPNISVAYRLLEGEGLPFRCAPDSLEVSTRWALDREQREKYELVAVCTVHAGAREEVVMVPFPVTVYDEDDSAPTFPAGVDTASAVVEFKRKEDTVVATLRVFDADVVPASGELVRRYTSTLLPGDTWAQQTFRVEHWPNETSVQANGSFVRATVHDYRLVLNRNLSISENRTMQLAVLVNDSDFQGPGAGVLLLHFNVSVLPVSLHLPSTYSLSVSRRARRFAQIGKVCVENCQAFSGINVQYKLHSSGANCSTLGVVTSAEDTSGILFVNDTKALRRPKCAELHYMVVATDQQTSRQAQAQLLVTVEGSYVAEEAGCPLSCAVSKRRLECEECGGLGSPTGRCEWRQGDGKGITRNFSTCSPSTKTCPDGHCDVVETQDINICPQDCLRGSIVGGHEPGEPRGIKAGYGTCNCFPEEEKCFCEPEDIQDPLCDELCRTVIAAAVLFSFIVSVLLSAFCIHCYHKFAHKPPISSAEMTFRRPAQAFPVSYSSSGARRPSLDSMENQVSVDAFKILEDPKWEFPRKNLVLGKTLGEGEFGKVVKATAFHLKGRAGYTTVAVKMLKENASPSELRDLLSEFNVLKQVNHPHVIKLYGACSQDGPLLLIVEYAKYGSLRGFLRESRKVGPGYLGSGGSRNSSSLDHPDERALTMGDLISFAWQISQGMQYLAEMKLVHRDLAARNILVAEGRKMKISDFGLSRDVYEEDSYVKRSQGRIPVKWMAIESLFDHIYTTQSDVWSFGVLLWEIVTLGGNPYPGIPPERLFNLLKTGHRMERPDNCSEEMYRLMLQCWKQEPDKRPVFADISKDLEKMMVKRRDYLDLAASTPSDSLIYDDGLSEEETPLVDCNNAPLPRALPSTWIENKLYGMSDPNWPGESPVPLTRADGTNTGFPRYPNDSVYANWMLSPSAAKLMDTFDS

Row | Structure (SMILES) | IC50 [1] [nM] | IC50 [2] [nM]
1 | Cc1cc(Nc2cc(C)[nH]n2)nc(N2CC3CCC(C2)N3C(=O)c2ccc(-n3cc(Cl)cn3)nc2)n1 [US12234222, Compound I-8] | 1.7 | 107
2 | Cc1cc(Nc2ccnc(N3CC4CCC(C3)N4C(=O)c3ccc(-n4cc(F)cn4)nn3)n2)n[nH]1 [US12234222, Compound I-14] | 3.9 | 141
